US20140066469A1, “TREATMENT OF DISEASES ASSOCIATED WITH INFLAMMATION” (Department of Veterans Affairs, priority 2012, published 2014)
Where two headings read alike, the source gives them in different places.

Experiments:
[1] = system: inflammatory cytokines in OA synovium; experiment: Multiplex cytokine analysis of synovium from DMM joints; assay type: in vivo, C57BL6 (B6) mice; details: HCQ sulfate 100 mg/kg/day or atorvastatin calcium 40 mg/kg/day, 3 months; vs vehicle
Method: FIG. 14. […] 3 months after surgery, the mice were sacrificed and the synovium of the operated joint isolated. The collected synovial membrane tissues were used to generate protein lysates, on which multiplex cytokine analysis was performed using the Luminex System and the Bio-Rad BioPlex 23plex mouse cytokine detection kit. Each sample was run in triplicate. […] (A) Heatmap presenting the relative levels (as compared to mean levels in the vehicle-control treated group). (B) Bar-graph display of mean cytokine levels for the indicated treatment groups.
After 3 months, mice were sacrificed, their joints harvested, and synovial tissue isolated from the joint by microdissection. The synovial tissues were homogenized and centrifuged, and the resulting supernatants were assayed for levels of inflammatory cytokines by using a multiplex bead-based cytokine assay (BioRad Laboratories, Hercules, Calif.).

[2] = system: retinal ganglion cell layer (GCL)
Excerpt: After 3 months, mice were sacrificed, and their eyes were carefully isolated by microdissection. The eyes were fixed in formalin and sectioned to allow visualization of the retina.

[3] = Patient case example, LDL cholesterol (Example 14); assay type: in vivo, humans; details: person, baseline 140 mg/dL, over several months
[4] = oral; cited from earlier work
[5] = system: osteoarthritis (OA) induced by destabilization of the medial meniscus (DMM); experiment: DMM mouse model of OA, histological scoring of stifle joints; assay type: in vivo, C57BL6 (B6) mice; details: Example 1; HCQ sulfate 100 mg/kg/day and/or atorvastatin calcium 40 mg/kg/day, oral gavage, 12 weeks; t test
Method: Experiments were performed under protocols approved by the Stanford University Committee of Animal Research and in accordance with NIH guidelines.

[6] = currently FDA-approved doses; cited from earlier work
retina = details: cited from earlier work; for ophthalmoscopically visualized loss of retinal pigmented epithelium (eye toxicity): treated humans after 5 years
[7] = cited from earlier work
non-erosive OA = details: general non-erosive human OA; cited from earlier work
[8] = coadministered with HCQ vs methotrexate alone

Which results are given for `CC(C)c1c(C(=O)Nc2ccccc2)c(-c2ccccc2)c(-c2ccc(F)cc2)n1CC[C@@H](O)C[C@@H](O)CC(=O)O` [Atorvastatin, atorvastatin]?
levels of inflammatory cytokines in OA synovium [1]: lower; number of nuclei in the GCL (viable retinal ganglion cells) ([2]; 3 months, vs vehicle, two-tailed t test): did not differ; disarrangement of the GCL ([2]; HCQ sulfate 100 mg/kg/day and/or atorvastatin calcium 40 mg/kg/day, 3 months): no disarrangement; LDL cholesterol [3]: 115 mg/day; systemic availability for HMG-CoA reductase activity [4]: approximately 30%

Which “Osteophyte score (osteophyte formation)” value [5] does the source give for `CCN(CCO)CCCC(C)Nc1ccnc2cc(Cl)ccc12` (centres unmarked) [HCQ, hydroxychloroquine] here?
The value was “not as potent”.

And the Synovitis score [5]?
Its Synovitis score is “not as potent”.

And the “levels of inflammatory cytokines in OA synovium” value [1]?
The value was “lower”.

What about the “number of nuclei in the GCL (viable retinal ganglion cells)” value ([2]; mouse, in vivo) of the same compound?
Its value is “significantly lower”.

What about the “Oral Bioavailability” value [6] of the same compound?
Its value is 89%.

And the T1/2 [6]?
The T1/2 was 41 days.

And the “Tmax” value [6]?
Its value is 0.083 to 0.12 days.

And the “Vd” value [6]?
The value was 605 L.

What about the retinal toxicity (retina; after 5-7 years of use) of the same compound?
Its retinal toxicity is roughly 1%.

And the “prevalence of retinal toxicity” value (retina; conventional doses of HCQ (400 mg/day common))?
Its value is 6.8 users per 1,000.

And the “clinically apparent eye toxicity” value (retina; patients)?
The value was “less than 1%”.

And the “ophthalmoscopically visualized loss of retinal pigmented epithelium (eye toxicity)” value (retina)?
Its value is 1%.

What about the “physician discontinuation for earlier eye problems” value (retina; treated patients over 5 years) of the same compound?
Its value is roughly 7%.

What about the “AUC of HCQ” value ([7]; between dosing occasions) of the same compound?
Its value is “no significant difference”.

What about the “disease-modifying or pain-reducing activity” value (non-erosive OA) of the same compound?
Its value is “failed to demonstrate”.

For `CCN(CC)CCCC(C)Nc1ccnc2cc(Cl)ccc12` (centres unmarked) [chloroquine], which “ophthalmoscopically visualized loss of retinal pigmented epithelium (eye toxicity)” value (retina) is on record?
Its value is “considerably higher”.

For `CN(Cc1cnc2nc(N)nc(N)c2n1)c1ccc(C(=O)N[C@@H](CCC(=O)O)C(=O)O)cc1` [methotrexate], which “maximum methotrexate concentration (Cmax)” value [7, 8] is on record?
The value was “decreased”.

What about the “mean area under the concentration-time curve (AUC) for methotrexate” value [7, 8] of the same compound?
Its value is “increased”.
